Assay results reported in patent US20250388857A1, “USE OF TRIBUTYRIN AS AN ADDITIVE FOR EMBRYONIC DEVELOPMENT CULTURE MEDIUM IN VITRO” (Institute of Animal Sciences and Veterinary Medicine, Hubei …, priority 2024, published 2025).

Tests used:
mouse embryos [1] = experiment: detection of mitochondrial membrane potential, JC-1 staining; format: cell-based; conditions: 100 μmol/L tributyrin, 2-cell stage, vs control
Procedure: (§1) Therefore, exemplically, experiments are carried out in the experimental group of this example using culture medium added 100 μmol/L of tributyrin, specifically, the experiments are divided into the following two groups:
(§2) Experimental group: the development culture medium in vitro of mouse embryos containing 100 μmol/L of tributyrin was added to the special dish for embryo culture, 2 droplets were made, 50 μL of culture medium per droplets, covered with paraffin oil, pre-balanced in an incubator with 37° C., 5% CO2 saturated humidity for more than 6 hours, and the embryos were placed in well-balanced culture droplets, with 25˜35 pieces per droplets.
Referring to the steps of development culture in vitro of example 2, development culture in vitro was carried out on the above two treatment groups; according to the instructions of the mitochondrial membrane potential J C-1 detection kit (Biyuntian, C2006), the embryos of the control group and the experimental group at the 2-cell stage were transferred into 1×J C-1 staining working solution, incubated in the dark at 37° C., 5% CO2 incubator for 30 min, then wash the embryos with 1×J C-1 staining buffer, it was placed under an inverted fluorescence microscope for observation and photography. Image J software was used to analyze the average fluorescence intensity of J C-1 red and J C-1 green in embryos.

mouse embryos [2] = experiment: detection of ATP level in mouse embryos; format: cell-based; conditions: 100 μmol/L tributyrin, 2-cell stage, vs control
Procedure: as §1, §2
Referring to the steps of development culture in vitro of example 2, development culture in vitro was carried out on the above two treatment groups; according to the instructions of the ATP detection kit (Biyuntian, S0027), the embryos of the control group and the experimental group at the 2-cell stage were tested for ATP. Add 16 μL of ATP detection lysate to 200 μL centrifuge tube and transfer into 40 pieces 2-cell stage embryos. […] 64 μL of ATP working solution (ATP detection reagent diluent: ATP detection reagent=4:1) was added to the tube, vortex and centrifuged to the bottom of the tube, quickly transferred to a black 96-well plate with a multifunctional microplate reader for detection.

GPX4 = experiment: detection of antioxidant gene expression in mouse embryos (qPCR), GPX4; format: cell-based; conditions: 100 μmol/L tributyrin, 2-cell stage, vs control, RPLP0 internal control
Procedure: as §1, §2
(§3) Referring to the steps of development culture in vitro of example 2, development culture in vitro was carried out on the above two treatment groups; embryos from the control group and the experimental group at the 2-cell stage were obtained, the high-purity RNA was extracted according to the instructions of the RNAprep Pure Total RNA Extraction Kit for Micro Samples (Tiangen, DP420). […] (annealed) for 30 s; 40 cycles (PCR amplification); the fluorescent signal was collected at 55° C. extension, the RPLPO gene was used as an internal control, and the expression was calculated using the 2^−ΔΔct formula, wherein, the primer sequences of each gene are shown in Table 2 below: […]

mouse embryos [3] = experiment: development in vitro of mouse embryos (rate of 2-cell, 4-cell, blastocyst); format: cell-based; conditions: for The rate of 2-cell: 24 h culture; for The rate of 4-cell: 48 h culture
Procedure: Specifically, at 4:00 p.m. on the first day, 10 IU pregnant horse serum gonadotropin was injected intraperitoneally into Kunming female mouse with SPF level for 6˜9 weeks, and 8 IU chorionic gonadotropin was injected after 48 hours. At 9:00 the next day, the 9˜12-week male mouse was killed by cervical dislocation, and the tail of the epididymis next to the vas deferens was taken, after cutting with ophthalmic scissors in 200 μL of insemination droplet (Sigma, MR-070-D) is to release sperm for 60 minutes. The insemination droplet need to be pre-balanced the night before. At the same time, 4 female mouse were killed by neck detachment, the enlargement of oviduct was disposed of in the sperm solution, the insulin needle was used to open the ampulla side under the microscope, and the cumulus-oocyte complex (COCs) would be released from the ampulla under the action of squeezing or internal pressure. 8˜10 μL of sperm and COCs were taken in the insemination droplet. After 6 h after insemination, the zygotes (with two pronuclei, both male and female) were cleaned and transferred to different treatments of KSOM culture medium, specific groups are as follows:
Control group: the basic development culture medium in vitro of mouse embryos was added to the special small dish for embryo culture, 2 droplets were made, 50 μL of culture medium per droplets, covered with paraffin oil, pre-balanced in an incubator with 37° C., 5% CO2 saturated humidity for more than 6 hours, and the embryos were placed in well-balanced culture droplets, with 25˜35 pieces per droplets;
as §2, with “Treatment group 1:” for “Experimental group:”, “50” for “100”, “droplets;” for “droplets.”
as §2, with “Treatment group 2:” for “Experimental group:”, “droplets;” for “droplets.”
as §2, with “Treatment group 3:” for “Experimental group:”, “200” for “100”, “droplets;” for “droplets.”
The above different treatment groups were incubated in an incubator with 37° C., 5% CO2 saturated humidity for 24 h, 48 h, 72 h and 96 h, corresponding to the 2-cell, 4-cell, morula and blastocyst stages of embryonic development, respectively, and the embryonic development was observed.
The rate of cleavage (%)=number of cleavage embryos/number of fertilized eggs with male and female pronuclei×100%
The rate of blastocyst (%)=number of blastocysts/number of cleavage embryos×100%

mouse embryos [4] = experiment: detection of reactive oxygen species (ROS) in mouse embryos, DCFH-DA fluorescence; format: cell-based; conditions: 100 μmol/L tributyrin, 2-cell stage, vs control
Procedure: as §1, §2
Referring to the steps of development culture in vitro of example 2, development culture in vitro was carried out on the above two treatment groups; according to the instructions of the reactive oxygen species detection kit (Biyuntian, S0033S), DCFH-DA was diluted to a working solution concentration of 5 µM with KSOM culture medium. […] Image J software was used to analyze the average fluorescence intensity of ROS in embryos.

SOD2 = experiment: detection of antioxidant gene expression in mouse embryos (qPCR), SOD2; format: cell-based; conditions: 100 μmol/L tributyrin, 2-cell stage, vs control, RPLP0 internal control
Procedure: as §1, §2, §3

[5] = test system: 5 hmC level in mouse embryonic genome; experiment: detection of DNA methylation level (5 hmC immunofluorescence); format: cell-based; conditions: 100 μmol/L tributyrin, 2-cell stage, vs control
Procedure: as §1, §2
Referring to the steps of development culture in vitro of example 2, development culture in vitro was carried out on the above two treatment groups; embryos from the control group and the experimental group at the 2-cell stage were obtained, in order to detect the DNA methylation level in mouse embryos, the cells were first fixed with paraformaldehyde, TritonX-100 enhanced the permeability of the cell membrane to facilitate the binding of antibody antigens. After acidification and base neutralization, the non-specific protein is blocked with 2% BSA, followed by incubation with the corresponding primary antibody and fluorescently labeled secondary antibody. The specific methods and steps are as follows: […]

histone H3K27ac = experiment: detection of histone acetylation level (H3K27ac immunofluorescence); format: cell-based, mouse; conditions: 100 μmol/L tributyrin, 2-cell stage, vs control
Procedure: as §1, §2
Referring to the steps of development culture in vitro of example 2, development culture in vitro was carried out on the above two treatment groups; embryos from the control group and the experimental group at the 2-cell stage were obtained, the histone H3K27ac level was detected by immunofluorescence. The specific methods and steps are as follows:
(1) Mouse embryos fixation and permeabilization: mouse embryos were placed in a washing solution (PBS containing 0.1% Tween-20 and 0.01% Triton X-100) for rapid washing for 1 time, then piped into the fixed permeabilization solution (PBS containing 4% paraformaldehyde and 0.5% Triton) and treated at room temperature for 50 min. […]

## CCCC(=O)OCC(COC(=O)CCC)OC(=O)CCC [tributyrin]
Mouse embryos [1]
  mitochondrial membrane potential level (relative fluorescence intensity of JC-1 red/green): significantly improved
Mouse embryos [2]
  ATP level in mouse embryos: significantly increased
GPX4
  expression of antioxidant gene GPX4: significantly increased
Mouse embryos [3]; 50 μmol/L tributyrin in KSOM
  The rate of 2-cell: 96.58 ± 0.83%
  The rate of 4-cell: 95.57 ± 0.57%
Mouse embryos [3]; 100 μmol/L tributyrin in KSOM
  The rate of 2-cell: 96.91 ± 0.76%
  The rate of 4-cell: 96.57 ± 0.37%
Mouse embryos [3]; 200 μmol/L tributyrin in KSOM
  The rate of 2-cell: 96.63 ± 0.5%
  The rate of 4-cell: 96.46 ± 0.5%
Mouse embryos [3]; treatment group compared to control group
  number of cells (microscopic observation, FIG. 1A): increased significantly
Mouse embryos [4]
  ROS level (average fluorescence intensity of ROS) in mouse embryos: significantly reduced
SOD2
  expression of antioxidant gene SOD2: significantly increased
[5]
  5 hmC level in mouse embryos: significantly increased
Histone H3K27ac
  histone H3K27ac level in mouse embryos: significantly increased
